Values quoted from earlier work in US7041675B2, “Heterocyclic compounds and their use as PARP inhibitors” (Abbott GmbH & Co. KG, priority 2000, dated 2006).

Tested on: model of circulatory shock
Settings: S. Cuzzocrea et al., Br. J. Pharmacol. 1997

NC(=O)c1cccc(N)c1 [3-aminobenzamide]
protective effects in a model of circulatory shock: protective effects
